From article PMC4514850, “A Novel TGR5 Activator WB403 Promotes GLP-1 Secretion and Preserves Pancreatic β-Cells in Type 2 Diabetic Mice” (PLoS ONE, 2015)
Entries after “also recorded” stand apart in the source; their conditions may differ.

What was measured:
hTGR5 = molecular target: T1, hTGR5 (Homo sapiens, UniProt Q8TDU6); assay: human TGR5 CRE-luciferase assay in co-transfected 293T cells; format: cell-based
T1 construct: expressed in transfected cells; host or cells: 293T cells, transient transfection with pTGR5 (gift from Prof. Johan Auwerx)
T1 sequence (Q8TDU6 1-330): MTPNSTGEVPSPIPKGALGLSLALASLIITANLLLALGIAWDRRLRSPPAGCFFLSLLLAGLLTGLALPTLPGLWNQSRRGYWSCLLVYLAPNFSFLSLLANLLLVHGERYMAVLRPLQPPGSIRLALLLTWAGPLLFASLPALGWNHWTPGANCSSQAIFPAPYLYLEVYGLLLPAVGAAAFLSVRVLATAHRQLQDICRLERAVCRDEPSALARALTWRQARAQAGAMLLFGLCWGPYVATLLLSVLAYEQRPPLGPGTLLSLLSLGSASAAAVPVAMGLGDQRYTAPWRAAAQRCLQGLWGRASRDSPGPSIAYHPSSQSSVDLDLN
Experimental: For human TGR5 luciferase (luc) assay, 293T cells were co-transfected with pCRE-luc, pTGR5 (kind gift from Prof. Johan Auwerx, Ecole Polytechnique Fédérale de Lausanne, Lausanne, Switzerland) and pRenilla (Promega, USA). WB403 was added 5 h later. Cells were harvested after 16 h and subjected to luciferase analysis on Lumistar Optima chemiluminescent detector (BMG labtech, Germany). For cAMP testing, 293T cells transiently transfected with pTGR5 or pGPR119 (GeneCopoeia, USA) were washed by FBS-free DMEM, and stimulated with WB403 in FBS-free DMEM containing 3-isobutyl-1-methyl-xanthine (IBMX, Sigma). Cell lysates were collected 30 min later and used for cAMP ELISA assay. FLIPR Calcium 5 assay kit (Molecular Devices, USA) was used for calcium mobilization assay. 293-GPR40 stable cells (kindly provided by Prof. Naiming Zhou of Zhejiang University, Hanzhou, China) or 293 cells transient transfected with GPR120 were seeded at 50,000 cells per well in black-walled clear-bottomed 96-well plates (Costar). An equal volume of loading buffer containing Fluo 4-AM was added the following day and cells were incubated for 1 h before stimulated with compounds. Increase of the intracellular Ca^2+ concentration was monitored by Flexstation 3 system (Molecular Devices, USA).
Fig 1 WB403 activated TGR5 and promoted active GLP-1 secretion. (A) WB403 stimulated hTGR5 in CRE-luciferase report system at the concentration range of 1–20 μmol/l. (B) WB403 stimulated hTGR5 specific cAMP accumulation at the concentration range of 1–50 μmol/l. n = 3. **p<0.01, ***p<0.001 vs. DMSO (+TGR5) group. (C) The hTGR5 targeted CRE-luciferase activity of WB403 and ZY403. […] (D) Effect of WB403 and ZY403 on gallbladders of mice. Normal mice were fasted overnight and treated with compounds (200 mg/kg) or vehicle (DMSO) by ip injection. Gallbladders (GB) were removed 30 min later and volumes measured then normalized to body weight (B.W.). n = 10. **p<0.01 vs. vehicle group. (E) Structure of WB403 and ZY403. WB403 promoted GLP-1 secretion in NCI-H716 cells (F), primary enterocytes (G), and MIN6 cells (H). n = 3. *p<0.05, **p<0.01, ***p<0.001 vs. vehicle group. (I) WB403 promoted GLP-1 in ICR mice. n = 5. **p<0.01 vs. vehicle group. Values represent mean ± SEM.

NCI-H716 cells = assay: active GLP-1 secretion in NCI-H716 cells; format: cell-based, human; details: 10 μmol/l, 30 min
Experimental: Endocrine differentiation was induced by seeding NCI-H716 cells in plates coated with Matrigel (Becton Dickinson). Cells were washed with RPMI-1640 medium without FBS and incubated in the same medium containing indicated compounds at 10 μmol/l. The condition medium was collected after 30 min. GLP-1 secretion in MIN6 or primary enterocytes was conducted similarly. To isolate primary enterocytes, ileum or colon was cut into 2 cm length, rinsed by PBS (pH7.2∼7.4) before dispersed in 10 mmol/l EDTA/PBS (pH7.4) for 15 min at room temperature, followed by pipetting up and down. Enterocytes were collected by filtration through a 70 μm cell strainer. To study the effect of WB403 on GLP-1 secretion in vivo, mice in group of three were fasted overnight and orally received 0, 50, 100 mg/kg of WB403 dispersed in 0.5% CMC with a DPP-4 inhibitor (5 mg/kg). There were 5 animals in each group. 2 g/kg glucose was administrated 30 min later and blood was collected 10 min after glucose challenge.
The GLP-1 (active) ELISA kit was purchased from Millipore, and insulin ELISA kit was from Mercodia. For quantitative determination of cAMP, a competitive enzyme immunoassay kit from R&D system was used. All immunoassays were performed according to manufacturers’ instructions.

HFD/STZ mice = assay: oral glucose tolerance test in HFD/STZ mice; format: in vivo; details: 2 g/kg glucose, oral 50, 100 mg/kg 30 min before load
Experimental: For generation of nongenetic mice model of type 2 diabetes, ICR mice were fed with high fat diet (HFD, with 60% fat, Research Diets) for three weeks, then fasted for 5 h before receiving a single dose of streptozotocin (STZ, Sigma) intraperitoneally (ip) at 80 mg/kg to induce partial insulin deficiency. […] Diabetes was assessed using conventional criteria. Mice with similar degree of hyperglycemia and body weight were randomized into various groups in order to get a similar average PBG in each group.
Mice were fasted overnight (14 h) before glucose tolerance tests. Normal mice received a 4 g/kg glucose challenge and for diabetic mice it’s 2 g/kg. WB403 at 50, 100 mg/kg, or sitagliptin at 100 mg/kg were administrated orally 30 min prior to glucose load (n = 10). For vehicle group, 0.5% CMC was administrated. Blood glucose levels were measured from tail bleeds with a glucometer (Roche, Accu-Chek Performa) at specified time points. Animals were treated and assessed in the order of the vehicle, WB403 50, 100 mg/kg and sitagliptin 100 mg/kg group.
Fig 2 Effects of WB403 on glucose tolerance during OGTT in normal and diabetic mice. OGTT time course and AUC in normal mice (A, B), HFD/STZ mice (C, D) and db/db mice (E, F). Values represent mean ± SD (n = 10). *p<0.05, **p<0.01, ***p<0.001 vs. vehicle group. Asterisks in A, C and E reflect significance between WB403 100 mg/kg and vehicle group.

For `CCc1cc(-c2nc(C)c(COCc3ccc(Br)cc3)s2)ccn1` [WB403, 4-(5-((4-bromobenzyloxy)-methyl)-4-methylthiazol-2-yl)-2-ethylpyridine], the “stimulation of luciferase reaction through TGR5” value (hTGR5; 1–20 μmol/l, Fig 1A) was “dose-dependently stimulate”, the EC50 (hTGR5; CRE-luciferase, 293T cells, read-out: TGR5 EC50) was 5.5 µM and the “luciferase activity in control 293T cells” value (hTGR5; control 293T cells transfected with an empty plasmid) was “no stimulation”. The “TGR5 luciferase activity in primary screen (fold increase compared to DMSO control)” value (hTGR5; screen of 100 compounds, S1 Fig) was “relatively lower luciferase activity”, the “GLP-1 stimulation in NCI-H716 cells” value (NCI-H716 cells) was “much higher GLP-1 stimulation capacity; also recorded: outstanding effect in GLP-1 stimulation” and the “blood glucose tolerance (OGTT) vs vehicle” value (HFD/STZ mice) was “The same results”.
